Results on 9 molecules are retold here after patent US6703536B2, “Disposable absorbent article having a skin care composition containing an enzyme inhibitor” (The Procter & Gamble Company, priority 1998, dated 2004).

Type in all cases: biochemical
One assay has as its target T1, purified chymotrypsin (Homo sapiens, UniProt P17538).
T1 construct: purchased Sigma, St. Louis, Mo; C8946
The assay is described as follows: Purified Chymotrypsin Activity (Purified Enzyme Method). The procedure: The IC50 is calculated according to the equation IC50=[I]/[(v/vi)−1], where [I] is the inhibitor concentration tested, v is the rate of substrate cleavage in the absence of the inhibitor and vi is the rate of substrate cleavage in the presence of the inhibitor. As described further below, the IC50 of an enzyme inhibitor according to the invention may be measured by a Purified Enzyme method, by a Specific Fecal Enzyme method or by a General Fecal Enzymes method.
Standard in vitro assays for enzyme activity, and inhibition of enzyme activity, are well known. The reagents used to conduct these tests are generally commercially available. In general, a simple system comprises an enzyme-specific substrate which, when hydrolyzed by the enzyme, produces a colored product. The activity of the enzyme is measured spectrophotometrically as the degree of development of the colored product (i.e., the rate of color change) over a predetermined time period. […] The following are exemplary methods that may be utilized to determine the inhibitory activity of enzyme inhibitors against A) purified enzymes known to exist in feces, B) specific enzyme activity in the feces itself and C) general enzyme activity in the feces itself. These methods are not intended to be limiting, however, as other methods, other substrates, other inhibitors and the like may be used to test activity against a wide variety of fecal enzymes, as known to one skilled in the art.
For each of the following exemplary Purified Enzyme Methods, Specific Fecal Enzyme Methods, General Fecal Enzymes Method, Purified Lipase activity assay, Fecal Lipase activity assay, Purified Urease activity assay, Fecal Urease activity assay, Purified Amylase activity assay, and Fecal Amylase activity assay, the IC50 for each inhibitor tested may be calculated according to the following equation: […]
where [I] is the inhibitor concentration tested, v is the rate of substrate cleavage in the absence of inhibitor and vi is the rate of substrate cleavage in the presence of inhibitor.
In the methods, v and vi are measured as the change in absorbance (optical density, OD) at a given wavelength/time (e.g., minutes).
The cuvette is incubated at 25° C. for 10 minutes. […] The same procedure is repeated without the putative inhibitor. […] The rates, vi and v, and the inhibitor concentration [I] are used to calculate IC50 according to the equation expressed above.

Assay [1] deals with trypsin activity in feces. The assay is described as follows: Fecal Trypsin Activity (Specific Fecal Enzyme Method). The note with it: pooled infant fecal suspension, pH 8.2, 25° C.; read-out: IC50 Specific Fecal Enzyme Methods Trypsin. An excerpt: (§1) The following is a general description of a method for obtaining a sample of feces suitable for use in Fecal Protease Methods. However, one skilled in the art will be able to adapt the method to obtain appropriate samples of feces suitable for use in any of the Specific Fecal Protease Methods listed below (i.e., lipase, urease, and amylase) without undue experimentation.
(§2) Pooled infant feces (at least five different samples) are collected in a manner to keep them free of urine and contamination and mixed with water to obtain a weight by weight (w/w) mixture (e.g., 1:50 w/w). This mixture is then mixed thoroughly to obtain a homogeneous suspension by homogenization or sonication. […] (Also, to ensure complete linearity the final absorbance should never exceed 1.5 OD405 units). If the activity of the pooled infant feces is outside this range, it is not possible to accurately determine IC50 values for putative protease inhibitors. However, the range of enzyme activity may be adjusted by increasing or decreasing the dilution factor accordingly for each enzyme. If this is not possible, a different group of subjects should be used to obtain the sample pool.
To test the efficacy of protease inhibitors against the trypsin activity in feces, inhibitor and trypsin buffer (50 mM TRIS, 20 mM CaCl2, pH 8.2) are added in a cuvette to obtain a final volume of 0.8 mL. To this mixture, 0.1 mL of substrate (3 mM Cbz-arginine-p-nitroanilide) is added to the cuvette. The cuvette is mixed by inversion and incubated at 25° C. for 5 minutes. A volume of 0.1 mL of fecal suspension is added to the cuvette, mixed and the absorbance at 405 nm minus the absorbance at 490 nm are measured over 5 minutes at 25° C. (The absorbance at 490 nm is a correction factor for the background absorbance due to the particulate fecal material, i.e., “interference”). The rate of substrate cleavage in the presence of inhibitor (vi) is the slope of a plot relating the excess absorbance (i.e., the absorbance at 405 nm minus the absorbance at 490 nm) versus time. The same procedure is repeated without the putative inhibitor. The rate of substrate cleavage in the absence of inhibitor (v) is the slope of a plot relating the excess absorbance versus time. The rates, vi and v, and the inhibitor concentration [I] are used to calculate IC50 according to the equation expressed above.

Another assay has as its target LAP activity in feces. As to the kind of experiment: Fecal LAP Activity (Specific Fecal Enzyme Method). The following applies: pooled infant fecal suspension, pH 7.2, 25° C.; read-out: IC50 Specific Fecal Enzyme Methods LAP.
Source text: as §1, §2
To test the efficacy of protease inhibitors against LAP activity in feces, inhibitor and LAP buffer (50 mM sodium phosphate, pH 7.2) are added in a cuvette to obtain a final volume of 0.95 mL. To this mixture, 0.03 mL of substrate (6 mM L-Leucine-p-nitroanilide) is added to the cuvette. The cuvette is mixed by inversion and incubated at 25° C. for 5 minutes. A volume of 0.02 mL of fecal suspension is added to the cuvette, mixed and the absorbance at 405 nm minus the absorbance at 490 nm measured over 5 minutes at 25° C. The rate of substrate cleavage in the presence of inhibitor (vi) is the slope of a plot relating the excess absorbance (i.e., the absorbance at 405 nm minus the absorbance at 490 nm) versus time. The same procedure is repeated without the putative inhibitor. The rate of substrate cleavage in the absence of inhibitor (v) is the slope of a plot relating the excess absorbance versus time. The rates, vi and v, and the inhibitor concentration [I] are used to calculate IC50 according to the equation expressed above.

The mark [2] stands for this setting: purified chymotrypsin, N-Succ-Ala-Ala-Pro-Phe-p-nitroanilide, pH 7.6, 25° C., read-out: IC50 Purified Enzyme Methods Chymotryp.

Structures can show the parent of a compound that is named as a salt. Where two headings read alike, the source gives them in different places. Square brackets hold non-standard residues; d marks the D form. Peptide text beside a SMILES is read from it. * marks the point of attachment. Sta = CC(C)C[C@H](N)[C@@H](O)CC(=O)O; Isovaleryl = CC(C)CC(=O)*

T1 sequence (P17538 19-263): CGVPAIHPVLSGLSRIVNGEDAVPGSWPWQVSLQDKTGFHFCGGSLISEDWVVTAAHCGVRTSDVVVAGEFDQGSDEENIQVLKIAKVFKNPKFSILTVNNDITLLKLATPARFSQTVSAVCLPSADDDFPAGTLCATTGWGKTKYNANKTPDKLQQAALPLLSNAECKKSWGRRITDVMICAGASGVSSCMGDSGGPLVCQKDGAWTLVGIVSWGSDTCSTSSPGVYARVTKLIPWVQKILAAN

The term IC50 denotes the concentration that inhibits the measured activity by half. On to `N=C(N)c1ccc(OCCCCCCOc2ccc(C(=N)N)cc2)cc1` [Hexamidine diisethionate], for which the values for the IC50 (at purified chymotrypsin (setting [2]); in assay [1]; at LAP activity in feces) were > 1000 µM, 2.3 µM and 130 µM, respectively.

Turning to `N=C(N)c1ccc(N)cc1` [p-Amino-benzamidine], the IC50 was > 500 µM at purified chymotrypsin (setting [2]), 20 µM in assay [1] and > 500 µM at LAP activity in feces.

Turning to `CC1(C)[C@@H](O[C@H]2O[C@H](C(=O)O)[C@@H](O)[C@H](O)[C@H]2O[C@@H]2O[C@H](C(=O)O)[C@@H](O)[C@H](O)[C@H]2O)CC[C@]2(C)[C@H]3C(=O)C=C4[C@@H]5C[C@@](C)(C(=O)O)CC[C@]5(C)CC[C@@]4(C)[C@]3(C)CC[C@@H]12` [Glycyrrhizic Acid], the figures for the IC50 (on purified chymotrypsin (setting [2]); in assay [1]; on LAP activity in feces) were > 500 µM, > 300 µM and > 300 µM, respectively.

In the case of `CC(C)CC(=O)N[C@H](C(=O)N[C@H](C(=O)N[C@@H](CC(C)C)[C@@H](O)CC(=O)N[C@@H](C)C(=O)N[C@@H](CC(C)C)[C@@H](O)CC(=O)O)C(C)C)C(C)C` [Pepstatin A] (Isovaleryl-VV[Sta]A[Sta]-OH), the IC50 at purified chymotrypsin (setting [2]) was 4.9 µM; in assay [1], > 500 µM; on LAP activity in feces, > 500 µM.

For the molecule Aprotinin, the IC50 was 1 µM on purified chymotrypsin (setting [2]), 0.01 µM in assay [1] and > 20 µM at LAP activity in feces.

For the molecule `CC(=O)N[C@@H](CC(C)C)C(=O)N[C@@H](CC(C)C)C(=O)N[C@H](C=O)CCCNC(=N)N` [Leupeptin], the IC50 on purified chymotrypsin (setting [2]) was > 500 µM; in assay [1], 0.11 µM; on LAP activity in feces, > 500 µM.

Turning to `CC(C)C[C@H](NC(=O)[C@@H](NC(=O)N[C@@H](Cc1ccccc1)C(=O)O)[C@@H]1CCN=C(N)N1)C(=O)N[C@H](C=O)Cc1ccccc1` [Chymostatin], the IC50 against purified chymotrypsin was < 0.12 µM; in assay [1], > 500 µM; on LAP activity in feces, > 500 µM.

Turning to `Cc1ccc(S(=O)(=O)N[C@@H](CCCCN)C(=O)CCl)cc1` [TLCK, L-1-chloro-3-[4-tosylamido]-7-amino-2-heptanone-HCl], the IC50 at purified chymotrypsin was > 500 µM; in assay [1] it was 200 µM; on LAP activity in feces, > 500 µM.

B1: Soybean trypsin inhibitor: plant-derived trypsin inhibitor (protein, UniProt P01070 25-205, looked up)
Trypsin inhibitor A: DFVLDNEGNPLENGGTYYILSDITAFGGIRAAPTGNERCPLTVVQSRNELDKGIGTIISSPYRIRFIAEGHPLSLKFDSFAVIMLCVGIPTEWSVVEDLPEGPAVKIGENKDAMDGWFRLERVSDDEFNNYKLVFCPQQAEDDKCGDIGISIDHDDGTRRLVVSKNKPLVVQFQKLDKESL
On to B1, for which the IC50 is 0.026 µM with purified chymotrypsin (setting [2]), < 0.01 µM in assay [1] and > 20 µM on LAP activity in feces.
